Laboratory results taken from ChEMBL document CHEMBL1131087, “New cyclooxygenase-2/5-lipoxygenase inhibitors. 3. 7-tert-butyl-2, 3-dihydro-3,3-dimethylbenzofuran derivatives as gastrointestinal safe antiinflammatory and analgesic agents: variations at the 5 position” (J Med Chem, 1998).
Activity calls are given as the source filed them. The calls are words filed in the database; no cut-off is given here.

Tests used:
[1] = system: Rattus norvegicus; experiment: Inhibition of paw swelling relative to the tebufelone in rat. Value was reported as Carrageenan paw edema index; type: functional
[2] = species: Rattus norvegicus; experiment: Comparative activity versus Dihydrodimethylbenzofurans in the CPE assay; -, indicates inactive; type: functional, organism-based
[3] = system: Rattus norvegicus; experiment: Comparative activity versus Dihydrodimethylbenzofurans in the CPE (Carrageenan paw edema) assay; -, inactive; type: functional, organism-based
[4] = Comparative activity versus Dihydrodimethylbenzofurans in the CPE (Carrageenan paw edema) assay; -, inactive; settings: Rattus norvegicus
[5] = species: Rattus norvegicus; experiment: Compound was tested for its analgesic activity in phenylquinone-induced abdominal constriction assay(PAC); type: functional; settings: Abdomen
[6] = system: Rattus norvegicus; experiment: Analgesic activity (50 mg/kg, sc)in phenylquinone-induced abdominal constriction assay(PAC); type: functional, Abdomen
[7] = system: Rattus norvegicus; experiment: Compound was tested at a dose of 50 mg/kg for its antiinflammatory activity in carrageenan paw edema (CPE) assay

Row | Compound | CPE index [1] | ED50 [5] | also measured
1 | CC(C)(C)c1cc(-c2cn3c(n2)S(=O)(=O)C=C3)cc2c1OCC2(C)C | 0.19 | – | Activity [2]: inactive
2 | CN(C)C(=O)c1cc(C(C)(C)C)c2c(c1)C(C)(C)CO2 | 0.36 | – | Activity [3]: inactive
3 | CC(C)(C)c1cc(C(N)=O)cc2c1OCC2(C)C | 0.07 | – | Activity [4]: inactive
4 | COc1ccc2cc([C@H](C)C(=O)O)ccc2c1 [NAPROXEN] | 1.06 | 1.3 mg/kg | Inhibition [6]: 54%
5 | C#CCCCC(=O)c1cc(C(C)(C)C)c(O)c(C(C)(C)C)c1 [TEBUFELONE] | – | 3.7 mg/kg | inhibition in vivo at 50 mg/kg [7]: 51.1%
